Source: patent US20220153744A1, “SOLID STATE FORMS OF ACALABRUTINIB” (ASSIA CHEMICAL INDUSTRIES LTD., priority 2019, published 2022)

What was measured:
Type in all cases: physicochemical
[1] = Polymorphic stability on storage at defined temperature and relative humidity
Source text: (§1) Crystalline Form ACB3 of Acalabrutinib may have advantageous properties as described herein above.

[2] = Polymorphic stability on heating; conditions: heated to about 100° C. over about 30 minutes
Source text: as §1

[3] = Polymorphic stability towards grinding
Source text: as §1

CC#CC(=O)N1CCC[C@H]1c1nc(-c2ccc(C(=O)Nc3ccccn3)cc2)c2c(N)nccn12 [Form ACB3, 4-{8-Amino-3-[(2S)-1-(2-butynoyl)-2-pyrrolidinyl]imidazo[1,5-a]pyrazin-1-yl}-N-(2-pyridinyl)benzamide]
polymorphically stable: polymorphic stability on storage ([1]; 40° C., RH of about 75%, at least 1 month) | polymorphic stability on storage ([1]; room temperature, RH of about 60%, at least 1 month) | polymorphic stability on storage ([1]; room temperature, RH of about 80%, at least 7 days) | polymorphic stability when heated [2] | polymorphic stability towards solvent grinding ([3]; solvent grinding) | polymorphic stability towards strong dry grinding ([3]; strong dry grinding)
